# Experimental data taken from the supplement of paper PMC10307832.
# Assays:
# Test in all cases: relative viability (nuclei count vs DMSO), 5 days (fraction); higher = more cells survive
# [1] = compound: Cn1cc(-c2cnn3c(N)c(Br)c([C@@H]4CCCNC4)nc23)cn1 + O=C(c1cc(Cc2n[nH]c(=O)c3ccccc23)ccc1F)N1CCN(C(=O)C2CC2)CC1 [Olaparib] (partner 8 µM)
# Procedure, shortened: (§1)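 Lung cancer cell lines in 1536-well plates were dosed by pin tool the day after seeding, either with one drug alone or with a fixed anchor-drug dose plus five library-drug doses (not always all listed) in √10 steps. After 5 days, cells were fixed and their nuclei stained in one step (final 0.05% Triton X-100, 1% formaldehyde, 1 ug/ml Hoechst), then counted on 4× images. Relative viability is the nuclei count in treated wells divided by that in vehicle wells. Values are medians of duplicate plates.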
# [2] = compound: Cn1cc(-c2cnn3c(N)c(Br)c([C@@H]4CCCNC4)nc23)cn1 + CC(C)C[C@H](NC(=O)[C@H](Cc1ccccc1)NC(=O)c1cnccn1)B(O)O [Bortezomib] (partner 0.002 µM)
# Procedure, shortened: as §1
# [3] = compound: Cn1cc(-c2cnn3c(N)c(Br)c([C@@H]4CCCNC4)nc23)cn1 + CC(=O)Nc1cccc(-n2c(=O)n(C3CC3)c(=O)c3c(Nc4ccc(I)cc4F)n(C)c(=O)c(C)c32)c1 [Trametinib] (partner 0.02 µM)
# Procedure, shortened: as §1
# [4] = compound: Cn1cc(-c2cnn3c(N)c(Br)c([C@@H]4CCCNC4)nc23)cn1 + CS(=O)(=O)N1CCN(Cc2cc3nc(-c4cccc5[nH]ncc45)nc(N4CCOCC4)c3s2)CC1 [Pictilisib] (partner 1 µM)
# Procedure, shortened: as §1
cell line,measurement,setting,value
NCI-H1355,relative viability,[1]; first compound 0.05 µM,0.811
same,relative viability,[1]; first compound 0.1581 µM,0.89
same,relative viability,[1]; first compound 0.5 µM,0.788
same,relative viability,[1]; first compound 1.581 µM,0.795
same,relative viability,[1]; first compound 5 µM,0.69
same,relative viability,[2]; first compound 0.05 µM,1.23
same,relative viability,[2]; first compound 0.1581 µM,1.33
same,relative viability,[2]; first compound 0.5 µM,1.17
same,relative viability,[2]; first compound 1.581 µM,1.15
same,relative viability,[2]; first compound 5 µM,1.24
same,relative viability,[3]; first compound 0.05 µM,0.369
same,relative viability,[3]; first compound 0.1581 µM,0.426
same,relative viability,[3]; first compound 0.5 µM,0.433
same,relative viability,[3]; first compound 1.581 µM,0.491
same,relative viability,[3]; first compound 5 µM,0.417
same,relative viability,[4]; first compound 0.05 µM,0.402
same,relative viability,[4]; first compound 0.1581 µM,0.474
same,relative viability,[4]; first compound 0.5 µM,0.467
same,relative viability,[4]; first compound 1.581 µM,0.408
same,relative viability,[4]; first compound 5 µM,0.342
NCI-H1437,relative viability,[1]; first compound 0.05 µM,0.664
same,relative viability,[1]; first compound 0.1581 µM,0.726
same,relative viability,[1]; first compound 0.5 µM,0.71
same,relative viability,[1]; first compound 1.581 µM,0.646
same,relative viability,[1]; first compound 5 µM,0.595
same,relative viability,[2]; first compound 0.05 µM,0.515
same,relative viability,[2]; first compound 0.1581 µM,0.581
same,relative viability,[2]; first compound 0.5 µM,0.577
same,relative viability,[2]; first compound 1.581 µM,0.432
same,relative viability,[2]; first compound 5 µM,0.316
same,relative viability,[3]; first compound 0.05 µM,0.504
same,relative viability,[3]; first compound 0.1581 µM,0.611
same,relative viability,[3]; first compound 0.5 µM,0.562
same,relative viability,[3]; first compound 1.581 µM,0.428
same,relative viability,[3]; first compound 5 µM,0.355
same,relative viability,[4]; first compound 0.05 µM,0.438
same,relative viability,[4]; first compound 0.1581 µM,0.411
same,relative viability,[4]; first compound 0.5 µM,0.418
same,relative viability,[4]; first compound 1.581 µM,0.292
same,relative viability,[4]; first compound 5 µM,0.306
NCI-H1650,relative viability,[1]; first compound 0.05 µM,0.625
same,relative viability,[1]; first compound 0.1581 µM,0.82
same,relative viability,[1]; first compound 0.5 µM,0.851
same,relative viability,[1]; first compound 1.581 µM,0.616
same,relative viability,[1]; first compound 5 µM,0.444
same,relative viability,[2]; first compound 0.05 µM,0.185
same,relative viability,[2]; first compound 0.1581 µM,0.171
same,relative viability,[2]; first compound 0.5 µM,0.215
same,relative viability,[2]; first compound 1.581 µM,0.189
same,relative viability,[2]; first compound 5 µM,0.196
same,relative viability,[3]; first compound 0.05 µM,0.559
same,relative viability,[3]; first compound 0.1581 µM,0.551
same,relative viability,[3]; first compound 0.5 µM,0.487
same,relative viability,[3]; first compound 1.581 µM,0.405
same,relative viability,[3]; first compound 5 µM,0.428
same,relative viability,[4]; first compound 0.05 µM,0.66
same,relative viability,[4]; first compound 0.1581 µM,0.654
same,relative viability,[4]; first compound 0.5 µM,0.681
same,relative viability,[4]; first compound 1.581 µM,0.479
same,relative viability,[4]; first compound 5 µM,0.24
NCI-H1651,relative viability,[1]; first compound 0.05 µM,0.17
same,relative viability,[1]; first compound 0.1581 µM,0.146
same,relative viability,[1]; first compound 0.5 µM,0.166
same,relative viability,[1]; first compound 1.581 µM,0.164
same,relative viability,[1]; first compound 5 µM,0.145
same,relative viability,[2]; first compound 0.05 µM,0.914
same,relative viability,[2]; first compound 0.1581 µM,0.954
same,relative viability,[2]; first compound 0.5 µM,0.89
same,relative viability,[2]; first compound 1.581 µM,0.898
same,relative viability,[2]; first compound 5 µM,0.56
same,relative viability,[3]; first compound 0.05 µM,0.885
same,relative viability,[3]; first compound 0.1581 µM,0.925
same,relative viability,[3]; first compound 0.5 µM,0.88
same,relative viability,[3]; first compound 1.581 µM,0.857
same,relative viability,[3]; first compound 5 µM,0.461
same,relative viability,[4]; first compound 0.05 µM,0.662
same,relative viability,[4]; first compound 0.1581 µM,0.613
same,relative viability,[4]; first compound 0.5 µM,0.607
same,relative viability,[4]; first compound 1.581 µM,0.283
same,relative viability,[4]; first compound 5 µM,0.312
NCI-H1666,relative viability,[1]; first compound 0.05 µM,0.777
same,relative viability,[1]; first compound 0.1581 µM,0.797
same,relative viability,[1]; first compound 0.5 µM,0.7
same,relative viability,[1]; first compound 1.581 µM,0.716
same,relative viability,[1]; first compound 5 µM,0.741
same,relative viability,[2]; first compound 0.05 µM,1.09
same,relative viability,[2]; first compound 0.1581 µM,0.804
same,relative viability,[2]; first compound 0.5 µM,0.786
same,relative viability,[2]; first compound 1.581 µM,0.802
same,relative viability,[2]; first compound 5 µM,0.721
same,relative viability,[3]; first compound 0.05 µM,0.92
same,relative viability,[3]; first compound 0.1581 µM,0.867
same,relative viability,[3]; first compound 0.5 µM,0.892
same,relative viability,[3]; first compound 1.581 µM,0.959
same,relative viability,[3]; first compound 5 µM,0.71
same,relative viability,[4]; first compound 0.05 µM,0.657
same,relative viability,[4]; first compound 0.1581 µM,0.429
same,relative viability,[4]; first compound 0.5 µM,0.338
same,relative viability,[4]; first compound 1.581 µM,0.464
same,relative viability,[4]; first compound 5 µM,0.413
NCI-H1734,relative viability,[1]; first compound 0.05 µM,0.625
same,relative viability,[1]; first compound 0.1581 µM,0.647
same,relative viability,[1]; first compound 0.5 µM,0.52
same,relative viability,[1]; first compound 1.581 µM,0.599
same,relative viability,[1]; first compound 5 µM,0.441
same,relative viability,[2]; first compound 0.05 µM,1.02
same,relative viability,[2]; first compound 0.1581 µM,1.13
same,relative viability,[2]; first compound 0.5 µM,0.798
same,relative viability,[2]; first compound 1.581 µM,0.865
same,relative viability,[2]; first compound 5 µM,0.746
same,relative viability,[3]; first compound 0.05 µM,0.667
same,relative viability,[3]; first compound 0.1581 µM,0.802
same,relative viability,[3]; first compound 0.5 µM,0.665
same,relative viability,[3]; first compound 1.581 µM,0.658
same,relative viability,[3]; first compound 5 µM,0.576
same,relative viability,[4]; first compound 0.05 µM,0.506
same,relative viability,[4]; first compound 0.1581 µM,0.46
same,relative viability,[4]; first compound 0.5 µM,0.475
same,relative viability,[4]; first compound 1.581 µM,0.382
same,relative viability,[4]; first compound 5 µM,0.358
NCI-H1755,relative viability,[1]; first compound 0.05 µM,0.964
same,relative viability,[1]; first compound 0.1581 µM,0.989
same,relative viability,[1]; first compound 0.5 µM,0.931
same,relative viability,[1]; first compound 1.581 µM,0.989
same,relative viability,[1]; first compound 5 µM,0.847
same,relative viability,[2]; first compound 0.05 µM,1.04
same,relative viability,[2]; first compound 0.1581 µM,1.03
same,relative viability,[2]; first compound 0.5 µM,0.952
same,relative viability,[2]; first compound 1.581 µM,0.879
same,relative viability,[2]; first compound 5 µM,0.711
same,relative viability,[3]; first compound 0.05 µM,0.783
same,relative viability,[3]; first compound 0.1581 µM,0.802
same,relative viability,[3]; first compound 0.5 µM,0.744
same,relative viability,[3]; first compound 1.581 µM,0.782
same,relative viability,[3]; first compound 5 µM,0.765
same,relative viability,[4]; first compound 0.05 µM,0.472
same,relative viability,[4]; first compound 0.1581 µM,0.411
same,relative viability,[4]; first compound 0.5 µM,0.452
same,relative viability,[4]; first compound 1.581 µM,0.292
same,relative viability,[4]; first compound 5 µM,0.334
NCI-H1792,relative viability,[1]; first compound 0.05 µM,0.637
same,relative viability,[1]; first compound 0.1581 µM,0.368
same,relative viability,[1]; first compound 0.5 µM,0.378
same,relative viability,[1]; first compound 5 µM,0.34
same,relative viability,[2]; first compound 0.05 µM,0.801
same,relative viability,[2]; first compound 0.1581 µM,1.1
same,relative viability,[2]; first compound 0.5 µM,0.703
same,relative viability,[2]; first compound 1.581 µM,0.551
same,relative viability,[2]; first compound 5 µM,0.371
same,relative viability,[3]; first compound 0.05 µM,0.409
same,relative viability,[3]; first compound 0.1581 µM,0.6
same,relative viability,[3]; first compound 0.5 µM,0.536
same,relative viability,[3]; first compound 5 µM,0.513
same,relative viability,[4]; first compound 0.05 µM,0.318
same,relative viability,[4]; first compound 0.1581 µM,0.288
same,relative viability,[4]; first compound 0.5 µM,0.24
same,relative viability,[4]; first compound 1.581 µM,0.241
same,relative viability,[4]; first compound 5 µM,0.164
